Laboratory results reported in US10398682B2, “Methods and compositions to prevent or treat bacterial infections” (THE BOARD OF REGENTS OF THE UNIVERSITY OF TEXAS SYSTEM, priority 2013, dated 2019).
Values after ≈ are worked out from the molar mass of the structure shown.

How the values were obtained:
Acinetobacter baumannii [1] = test: SIgA breakdown / secretory component liberation by Acinetobacter baumannii (Western blot); format: cell-based; conditions: for SC liberation / SIgA reduction: 2 hours after incubation
Description: Acinetobacter baumannii was incubated with 50 μg/mL SIgA to examine breakdown of the immunoglobulin. Breakdown of SIgA by A. baumannii was observed by liberation of secretory component from dimeric IgA. Goat anti-human secretory component (free and bound) antibody was used to monitor this occurrence though Western blot. A mixture of A. baumannii strain CI 79 was prepared in three concentrations—10^7, 10^6, and 10^5 CFU/mL—to determine whether SIgA breakdown was dose dependent with respect to bacterial concentration FIG. 1A. […] Next, two competitive inhibitors of reductase enzymes targeting the thioredoxin fold (-C-X-X-C-) motif typically found in thiol-reductase enzymes (thioredoxin, glutathione, thioredoxin reductase, etc) were identified. The first, dithionitrobenzoic acid (Ellman's reagent) is often used as a colorimetric substrate to monitor thioredoxin activity as it produces a bright yellow color upon cleavage of the disulfide bond within the molecule. The second is PX-12. […] Although not shown here, inhibition was still evident at 24 hours with Ellman's reagent, PX-12 inhibition seemed to be overcome by the bacteria after about 12 hours. […] (Error bars represent±SEM in all graphs; statistical differences determined by ANOVA with Dunnett correction; *significance p<0.01; **p<0.001).

[2] = test system: A. baumannii strain CI 79; test: Bacterial adherence to mouse intestinal sections; format: cell-based, Acinetobacter baumannii
Description: Intestinal sections were cut down one side to expose the inner lumen of the intestine and individually placed in suspensions of A. baumannii strain CI 79 (10^7 CFU/mL). The sections were incubated in this mixture for 30 minutes, washed twice in 250 volumes of sterile PBS and soaked in 500 volumes of PBS (volume of section ˜50-100 μL) for five minutes. The remaining bound bacteria were enumerated through homogenization of each section into single cell suspensions in 10 mL sterile PBS followed by dilution plating.

[3] = test system: multi-drug resistant (MDR) Acinetobacter baumannii clinical isolates; test: Minimum inhibitory concentration (MIC) determination; format: cell-based
Description: PX-12 concentrations used in these experiments approximated the concentration reported “well tolerated” by mice (˜500 μg/mouse; 500 μg/mL for this experiment). […] Furthermore, this concentration was also bactericidal leading us to believe it may potentially be useful as a new antimicrobial compound for treating MDR Acinetobacter baumannii. (Bacterial concentrations used in presented studies ˜100× higher than recommended by CLSI standards)

Acinetobacter baumannii [4] = test: Repeat MIC experiment performed to CLSI standards; format: cell-based
[5] = humans; 300 mg/m^2 dose level; cited from earlier work
[6] = mouse, in vivo; cited from earlier work
[7] = cation adjusted Mueller Hinton broth, ~5×10^5 CFU/mL, 64 to 0.5 μg/mL tested

Row | SMILES | SC liberation (Acinetobacter baumannii [1]; inhibitor 15 μg/mL) | SIgA reduction (Acinetobacter baumannii [1]; inhibitor 15 μg/mL) | time after which inhibition is overcome by the bacteria (Acinetobacter baumannii [1]; not shown) | SIgA breakdown by Acinetobacter baumannii (Acinetobacter baumannii [1]; up to 2 hours following treatment with 18 μg/mL) | bacterial adherence to intestinal sections ([2]; 18 μg/mL, sections from WT C57BL/6 mice) | reduction of bacterial attachment ([2]; WT intestinal sections as 100% control, A. baumannii CI 79 10^7 CFU/mL, 30 minutes) | bactericidal effect at the MIC ([3]; 31.25 μg/mL) | bacterial pellet size ([3]; 500 μg/mL) | MIC ([3]; Acinetobacter baumannii, MDR clinical isolates, with one exception, bacterial concentrations ~100× higher than CLSI) | MBC (Acinetobacter baumannii [4]; [7]) | MIC (Acinetobacter baumannii [4]; [7]) | type of antimicrobial activity (Acinetobacter baumannii [4]; concluded from MIC and MBC) | dose-limiting toxicities [5] | concentration reported well tolerated [6] | SC liberation (Acinetobacter baumannii [1]; inhibitor 1 mM) | SIgA reduction (Acinetobacter baumannii [1]; inhibitor 1 mM) | inhibition of SIgA reduction at 24 hours (Acinetobacter baumannii [1]; 24 hours, not shown) | SIgA breakdown by Acinetobacter baumannii (Acinetobacter baumannii [1]; after addition of the substrate, concentration not given)
1 | CCC(C)SSc1ncc[nH]1 (stereo not drawn) [PX-12, 1-methylpropyl 2-imidazolyl disulfide] | completely ablated | completely ablated | about 12 hours | significantly reduced | significantly inhibits | 40% | bactericidal | visible decrease | 31.2 µg/mL (≈ 166 µM) | low | low | bactericidal activity | Grade 3 hypoxia and Grade 2 reversible bilateral pneumonitis | ~500 μg/mouse |  |  |  | 
2 | O=C(O)c1cc(SSc2ccc([N+](=O)[O-])c(C(=O)O)c2)ccc1[N+](=O)[O-] [dithionitrobenzoic acid] |  |  |  |  |  |  |  |  |  |  |  |  |  |  | completely ablated | completely ablated | still evident | significantly reduced
